Values of other authors, collected in patent US20240238442A1, “LIPOSOMES DISPLAYING A GLYCAN LIGAND FOR CD33 AND THEIR USE IN THE TREATMENT OF ALZHEIMER'S DISEASE” (THE GOVERNORS OF THE UNIVERSITY OF ALBERTA, priority 2021, published 2024).

Target: CD33 (Homo sapiens, UniProt P20138)
Conditions: free ligand

Sequence of CD33 (P20138 18-364): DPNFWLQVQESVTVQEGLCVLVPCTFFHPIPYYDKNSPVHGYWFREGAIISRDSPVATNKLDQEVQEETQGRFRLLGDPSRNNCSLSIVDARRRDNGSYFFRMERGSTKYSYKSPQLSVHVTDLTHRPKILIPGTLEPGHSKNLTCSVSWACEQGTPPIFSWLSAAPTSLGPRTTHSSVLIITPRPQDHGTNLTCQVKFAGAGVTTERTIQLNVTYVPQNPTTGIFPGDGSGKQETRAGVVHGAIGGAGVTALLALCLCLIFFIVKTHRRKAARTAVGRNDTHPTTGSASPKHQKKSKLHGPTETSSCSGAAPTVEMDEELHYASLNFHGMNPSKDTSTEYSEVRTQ

Kd: 87 µM
Structure (SMILES): Cc1cc(C(=O)NC[C@@H](O)CC2O[C@@](OCC3OC(O[C@@H]4C(CO)O[C@@H](OCCN)C(O)C4O)C(O)C(O)[C@H]3O)(C(=O)O)CC(O)[C@H]2C(O)NC(=O)Cn2cc(C3CCCCC3)nn2)cc(C)c1O (stereo partly shown) [CD33L]
